This passage reports IC50 results from patent publication US11186554B2, “Non-fused tricyclic compounds” (VIVACE THERAPEUTICS, INC., priority 2017, dated 2021).

As a reminder, the IC50 is the point on the concentration scale where inhibition reaches its midpoint.

The first assay deals with firefly luciferase activity. The experiment in a line: Dual-Glo firefly/renilla luciferase reporter assay in cells. Format: cell-based. Conditions: 24 h, read-out: Firefly Luciferase IC50 (μM). (In general: Reporter assays use an easily measured gene product as a stand-in for the process of interest.)
`OCCn1nnc(-c2cc(Cl)ccc2Nc2ccc(C(F)(F)F)cc2)n1` [Compound 238, 2-(5-(5-chloro-2-((4-(trifluoromethyl)phenyl)amino)phenyl)-2H-tetrazol-2-yl)ethanol]: the 50% inhibitory concentration (IC50) was less than 0.1 µM.

For `OCCn1nnc(-c2ccc(Cl)cc2Nc2ccc(C(F)(F)F)cc2)n1` [Compound 239, 2-(5-(4-chloro-2-((4-(trifluoromethyl)phenyl)amino)phenyl)-2H-tetrazol-2-yl)ethanol], the IC50 is less than 0.1 µM.

For `COc1ccc(Nc2ccc(C(F)(F)F)cc2)c(-c2nnn(CCO)n2)c1` [Compound 240, 2-[5-[5-methoxy-2-[4-(trifluoromethyl)anilino]phenyl]tetrazol-2-yl]ethanol], the IC50 is less than 0.1 µM.

Turning to `COc1ccc(-c2nnn(CCO)n2)c(Nc2ccc(C(F)(F)F)cc2)c1` [Compound 241, 2-[5-[4-methoxy-2-[4-(trifluoromethyl)anilino]phenyl]tetrazol-2-yl]ethanol], the IC50 was less than 0.1 µM.

Consider `Cc1ccc(Nc2ccc(C(F)(F)F)cc2)c(-c2nnn(CCO)n2)c1` [Compound 242, 2-(5-(5-methyl-2-((4-(trifluoromethyl)phenyl)amino)phenyl)-2H-tetrazol-2-yl)ethanol], for which the IC50 is less than 0.1 µM.

Take `Cc1ccc(-c2nnn(CCO)n2)c(Nc2ccc(C(F)(F)F)cc2)c1` [Compound 243, 2-(5-(4-methyl-2-((4-(trifluoromethyl)phenyl)amino)phenyl)-2H-tetrazol-2-yl)ethanol]: the half-maximal inhibitory concentration (IC50) was less than 0.1 µM.

On to `OCCn1nnc(-c2ccccc2Nc2cccc(Cl)c2)n1` [Compound 250, 2-(5-(2-((3-chlorophenyl)amino)phenyl)-2H-tetrazol-2-yl)ethanol], for which the IC50 lay in the range of 1 to 5 µM.

Turning to `OCCn1nnc(-c2cc(OC(F)F)ccc2Nc2ccc(C(F)(F)F)cc2)n1` [Compound 260, 2-(5-(5-(difluoromethoxy)-2-((4-(trifluoromethyl)phenyl)amino)phenyl)-2H-tetrazol-2-yl)ethanol], the IC50 was less than 0.1 µM.

With `OCCn1nnc(-c2cc(OC(F)(F)F)ccc2Nc2ccc(C(F)(F)F)cc2)n1` [Compound 261, 2-(5-(5-(trifluoromethoxy)-2-((4-(trifluoromethyl)phenyl)amino)phenyl)-2H-tetrazol-2-yl)ethanol], the half-maximal inhibitory concentration (IC50) was in the range of 0.1 to 1 µM.

Regarding `OCCn1nnc(-c2cc(C(F)(F)F)ccc2Nc2ccc(C(F)(F)F)cc2)n1` [Compound 262, 2-(5-(5-(trifluoromethyl)-2-((4-(trifluoromethyl)phenyl)amino)phenyl)-2H-tetrazol-2-yl)ethanol], the IC50 was in the range of 0.1 to 1 µM.

The assay is the same for the next values; noted with them: 24 hrs compound treatment, starting from 3 uM, 1:3 dilution, 10 points; read-out: Firefly Luciferase IC50.
For `O[C@H]1CNC[C@@H]1n1nnc(-c2ccccc2Nc2ccc(C(F)(F)F)cc2)n1` [Compound 234, (3S,4S)-4-(5-(2-((4-(trifluoromethyl)phenyl)amino)phenyl)-2H-tetrazol-2-yl)pyrrolidin-3-ol], the IC50 is 0.1 to 1 µM.

Take `OC1(Cn2nnc(-c3ccccc3Nc3ccc(C(F)(F)F)cc3)n2)CSC1` [Compound 244, 3-[[5-[2-[4-(trifluoromethyl)anilino]phenyl]tetrazol-2-yl]methyl]thietan-3-ol]: the 50% inhibitory concentration (IC50) is less than 0.1 µM.

As to `[O-][S+]1CC(O)(Cn2nnc(-c3ccccc3Nc3ccc(C(F)(F)F)cc3)n2)C1` (stereo not drawn) [Compound 245, 1-oxo-3-[[5-[2-[4-(trifluoromethyl)anilino]phenyl]tetrazol-2-yl]methyl]thietan-3-ol], the 50% inhibitory concentration (IC50) was in the range of 0.1 to 1 µM.

`OCCn1nnc(-c2ccccc2Nc2ccc(C(F)(F)F)c(Cl)c2)n1` [Compound 246, 2-(5-(2-((3-chloro-4-(trifluoromethyl)phenyl)amino)phenyl)-2H-tetrazol-2-yl)ethanol]: the concentration for half-maximal inhibition (IC50) is less than 0.1 µM.

As for `OCCn1nnc(-c2ccccc2Nc2ccc(SC(F)(F)F)cc2)n1` [Compound 248, 2-(5-(2-((4-((trifluoromethyl)thio)phenyl)amino)phenyl)-2H-tetrazol-2-yl)ethanol], the IC50 lay in the range of 0.1 to 1 µM.

Consider `OCCn1nnc(-c2ccccc2Nc2ccc(Cl)c(Cl)c2)n1` [Compound 251, 2-(5-(2-((3,4-dichlorophenyl)amino)phenyl)-2H-tetrazol-2-yl)ethanol], for which the half-maximal inhibitory concentration (IC50) was 0.1 to 1 µM.

Turning to `OCCn1nnc(-c2ccccc2Nc2cc(Cl)c(Cl)c(Cl)c2)n1` [Compound 253, 2-(5-(2-((3,4,5-trichlorophenyl)amino)phenyl)-2H-tetrazol-2-yl)ethanol], the IC50 fell in the range of 1 to 5 µM.

With `OCCn1nnc(-c2cc(Br)ccc2Nc2ccc(C(F)(F)F)cc2)n1` [Compound 254, 2-[5-[5-bromo-2-[4-(trifluoromethyl)anilino]phenyl]tetrazol-2-yl]ethanol], the IC50 is less than 0.1 µM.

Take `OCCn1nnc(-c2cc(C3CC3)ccc2Nc2ccc(C(F)(F)F)cc2)n1` [Compound 255, 2-(5-(5-cyclopropyl-2-((4-(trifluoromethyl)phenyl)amino)phenyl)-2H-tetrazol-2-yl)ethanol]: the IC50 is less than 0.1 µM.

As to `CCc1ccc(Nc2ccc(C(F)(F)F)cc2)c(-c2nnn(CCO)n2)c1` [Compound 256, 2-[5-[5-ethyl-2-[4-(trifluoromethyl)anilino]phenyl]tetrazol-2-yl]ethanol], the 50% inhibitory concentration (IC50) was less than 0.1 µM.

Regarding `NCC(CO)n1nnc(-c2ccccc2Nc2ccc(C(F)(F)F)cc2)n1` (stereo not drawn) [Compound 259, 3-amino-2-(5-(2-((4-(trifluoromethyl)phenyl)amino)phenyl)-2H-tetrazol-2-yl)propan-1-ol], the IC50 was in the range of 0.1 to 1 µM.

On to `FC(F)(F)c1ccc(Nc2ccccc2-c2nnn(C3COCOC3)n2)cc1` [Compound 263, 2-(2-(1,3-dioxan-5-yl)-2H-tetrazol-5-yl)-N-(4-(trifluoromethyl)phenyl)aniline], for which the half-inhibitory concentration (IC50) was less than 0.1 µM.

On to `OCC(CO)n1nnc(-c2ccccc2Nc2ccc(C(F)(F)F)cc2)n1` [Compound 264, 2-(5-(2-((4-(trifluoromethyl)phenyl)amino)phenyl)-2H-tetrazol-2-yl)propane-1,3-diol], for which the 50% inhibitory concentration (IC50) was less than 0.1 µM.

As to `OCCn1nnc(-c2cc(C(F)F)ccc2Nc2ccc(C(F)(F)F)cc2)n1` [Compound 266, 2-[5-[5-(difluoromethyl)-2-[4-(trifluoromethyl)anilino]phenyl]tetrazol-2-yl]ethanol], the 50% inhibitory concentration (IC50) lay in the range of 0.1 to 1 µM.
